Consider eight compounds from US20250206761A1, “HALOINDOLE MACROCYCLIC COMPOUNDS FOR THE TREATMENT OF CANCER” (Hoffmann-La Roche Inc., priority 2022, published 2025).

Some results are limits rather than exact numbers.

The target in experiment [1] is T1, KRAS G12C-BRAF complex (Homo sapiens (Human), UniProt P01116+P62937, G12C). The experiment is described as follows: KRAS-BRAF with CYPA (500 nM) interaction assay (TR-FRET), G12C. It counts as biochemical. In general terms: TR-FRET usually uses a lanthanide donor and a delayed reading to cut background.
T1 sequence (P01116-2 other isoform, or with tags, fused parts or gaps G12C): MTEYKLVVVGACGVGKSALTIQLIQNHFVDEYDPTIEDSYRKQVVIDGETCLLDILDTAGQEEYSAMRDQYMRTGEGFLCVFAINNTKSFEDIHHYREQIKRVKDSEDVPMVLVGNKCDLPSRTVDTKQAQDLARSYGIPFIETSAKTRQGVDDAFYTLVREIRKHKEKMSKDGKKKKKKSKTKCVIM
T1 sequence (P62937 whole entry): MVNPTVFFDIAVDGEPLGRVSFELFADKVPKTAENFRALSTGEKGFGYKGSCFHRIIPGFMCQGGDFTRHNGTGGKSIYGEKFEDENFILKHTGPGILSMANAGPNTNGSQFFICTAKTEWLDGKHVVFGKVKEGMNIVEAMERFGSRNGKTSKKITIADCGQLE
For experiment [2], the target named is T1, KRAS G12C-BRAF complex. The experiment is described as follows: KRAS G12C-BRAF NanoBit assay. It counts as cell-based. The note with it: HEK293 cells, 3 hours of incubation. In outline:
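Stable HEK293 pool co-expressing SmBit-KRAS G12C and BRAF RBD-LgBit; 10,000 cells/well incubated 3 h with compound, 16-point 3-fold dilution from 30 μM final. Live-cell Nano-Glo substrate added, luminescence read at 20 min; disruption seen as luminescence decrease vs DMSO.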

Experiment [3] addresses KRAS G12V binding to BRAF (Homo sapiens (Human), UniProt P01116+P62937, G12V). Description: KRAS-BRAF with CYPA (500 nM) interaction assay (TR-FRET), G12V. It counts as biochemical. An outline of the steps:
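A TR-FRET assay measured how compound, in the presence of CYPA, disrupts binding of GMPPNP-loaded 6His-KRAS G12V to BRAF. The buffer contained 25 mM HEPES PH=7.4, 0.002% Tween20, 0.1% BSA, 100 mM NaCl, 5 mM MgCl2 and 10 μM GMPPNP. Compounds ran as a 16-point 3-fold dilution series from 10 μM for 3 hours.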

Experiment [4] relates to AGS (ATCC-CRL-1739) cells. Description: Cell viability assay, G12D (AGS). The class given is cell-based, human. The conditions noted are these: Homo sapiens, KRAS cell viability, 72 hrs, Cell Counting Kit-8. An outline of the steps: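 Cells were seeded at 5,000 cells/well (NCI-H358) or 2,000 cells/well (AGS, SW620), incubated overnight, then treated with compounds in 0.5% DMSO final for 72 hrs. CCK-8 was added and OD450 minus OD650 read after 2 hrs; IC50 came from a 4-parameter sigmoidal fit.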
In general terms: Formazan colour is commonly taken as a measure of viable cells.

In experiment [5] the target is KRAS G12D binding to BRAF (Homo sapiens (Human), UniProt P01116+P62937, G12D). The experiment is described as follows: KRAS-BRAF with CYPA (500 nM) interaction assay (TR-FRET), G12D. It counts as biochemical.
Sequence of KRAS G12D binding to BRAF (P01116-2 other isoform, or with tags, fused parts or gaps G12D): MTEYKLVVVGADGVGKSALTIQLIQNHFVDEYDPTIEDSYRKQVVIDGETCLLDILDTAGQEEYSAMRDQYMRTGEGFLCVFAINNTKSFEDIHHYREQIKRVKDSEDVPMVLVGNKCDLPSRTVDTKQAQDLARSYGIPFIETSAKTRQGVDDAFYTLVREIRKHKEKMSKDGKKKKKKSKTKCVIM
Sequence of KRAS G12D binding to BRAF (P62937 whole entry): as the sequence (P62937 whole entry) above

Sequence of KRAS G12V binding to BRAF (P01116-2 other isoform, or with tags, fused parts or gaps G12V): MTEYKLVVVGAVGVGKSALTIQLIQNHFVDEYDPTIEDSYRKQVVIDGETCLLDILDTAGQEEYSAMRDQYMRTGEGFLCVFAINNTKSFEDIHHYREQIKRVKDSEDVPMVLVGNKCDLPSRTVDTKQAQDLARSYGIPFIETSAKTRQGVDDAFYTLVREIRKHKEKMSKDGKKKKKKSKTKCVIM
Sequence of KRAS G12V binding to BRAF (P62937 whole entry): as the sequence (P62937 whole entry) above

`CO[C@@H](C)c1ncc(N2CCN(C)CC2)cc1-c1c2c3cc(c(F)cc3n1CC(F)(F)F)-c1cc(O)cc(c1)C[C@H](NC(=O)[C@H](C(C)C)N(C)C(=O)[C@H]1CCN(C(=O)[C@H](F)Cl)C1)C(=O)N1CCC[C@H](N1)C(=O)OCC(C)(C)C2` (atropisomer, axis not shown; (M)) [Example 8, (3S)-1-[(2R)-2-chloro-2-fluoro-acetyl]-N-[(1S)-1-[[(8S,14S)-25-fluoro-4-hydroxy-(21M)-21-[2-[(1S)-1-methoxyethyl]-5-(4-methylpiperazin-1-yl)-3-pyridyl]-18,18-dimethyl-9,15-dioxo-22-(2,2,2-trifluoroethyl)-16-oxa-10,22,28-triazapentacyclo[18.5.2.1^2,6.1^10,14.0^23,27]nonacosa-1(26),2,4,6(29),20,23(27),24-heptaen-8-yl]carbamoyl]-2-methyl-propyl]-N-methyl-pyrrolidine-3-carboxamide]: the IC50 against KRAS G12C-BRAF complex [1] was 3 nM; on KRAS G12C-BRAF complex [2] it was 43 nM; in experiment [3], 10 nM; in experiment [4] it was 1560 nM; in experiment [5] it was 85 nM.

In the case of `CO[C@@H](C)c1ncc(N2CCN(C)CC2)cc1-c1c2c3cc(c(C)cc3n1CC(F)(F)F)-c1csc(n1)C[C@H](NC(=O)[C@H](C(C)C)N(C)C(=O)C1(F)CCN(C(=O)[C@H](F)Cl)CC1)C(=O)N1CCC[C@H](N1)C(=O)OCC(C)(C)C2` (atropisomer, axis not shown; (M)) [Example 9, 1-[(2R)-2-chloro-2-fluoro-acetyl]-4-fluoro-N-[(1S)-1-[[(7S,13S)-(20M)-20-[2-[(1S)-1-methoxyethyl]-5-(4-methylpiperazin-1-yl)-3-pyridyl]-17,17,24-trimethyl-8,14-dioxo-21-(2,2,2-trifluoroethyl)-15-oxa-4-thia-9,21,27,28-tetrazapentacyclo[17.5.2.1^2,5.1^9,13.0^22,26]octacosa-1(25),2,5(28),19,22(26),23-hexaen-7-yl]carbamoyl]-2-methyl-propyl]-N-methyl-piperidine-4-carboxamide], the IC50 was 176 nM against KRAS G12C-BRAF complex [1]; 64 nM against KRAS G12C-BRAF complex [2]; above 10000 nM in experiment [3]; 505 nM in experiment [4]; above 10000 nM in experiment [5].

Take `CO[C@@H](C)c1ncc(N2CCN(C)CC2)cc1-c1c2c3cc(c(F)cc3n1CC(F)(F)F)-c1csc(n1)C[C@H](NC(=O)[C@H](C(C)C)N(C)C(=O)C1(F)CCN(C(=O)[C@H](F)Cl)CC1)C(=O)N1CCC[C@H](N1)C(=O)OCC(C)(C)C2` (atropisomer, axis not shown; (M)) [Example 10, 1-[(2R)-2-chloro-2-fluoro-acetyl]-4-fluoro-N-[(1S)-1-[[(7S,13S)-24-fluoro-(20M)-20-[2-[(1S)-1-methoxyethyl]-5-(4-methylpiperazin-1-yl)-3-pyridyl]-17,17-dimethyl-8,14-dioxo-21-(2,2,2-trifluoroethyl)-15-oxa-4-thia-9,21,27,28-tetrazapentacyclo[17.5.2.1^2,5.1^9,13.0^22,26]octacosa-1(25),2,5(28),19,22(26),23-hexaen-7-yl]carbamoyl]-2-methyl-propyl]-N-methyl-piperidine-4-carboxamide]: the 50% inhibitory concentration (IC50) at KRAS G12C-BRAF complex [1] amounted to 20 nM; on KRAS G12C-BRAF complex [2], 4 nM; in experiment [3] it was 136 nM; in experiment [4], 105 nM; in experiment [5], 964 nM.

As for `CO[C@@H](C)c1ncc(N2CCN(C)CC2)cc1-c1c2c3cc(c(F)cc3n1CC(F)(F)F)-c1csc(n1)C[C@H](NC(=O)[C@H](C(C)C)N1CCCC3(CN(C(=O)[C@H](F)Cl)C3)C1=O)C(=O)N1CCC[C@H](N1)C(=O)OCC(C)(C)C2` (atropisomer, axis not shown; (M)) [Example 11, (2S)-2-[2-[(2R)-2-chloro-2-fluoro-acetyl]-5-oxo-2,6-diazaspiro[3.5]nonan-6-yl]-N-[(7S,13S)-24-fluoro-(20M)-20-[2-[(1S)-1-methoxyethyl]-5-(4-methylpiperazin-1-yl)-3-pyridyl]-17,17-dimethyl-8,14-dioxo-21-(2,2,2-trifluoroethyl)-15-oxa-4-thia-9,21,27,28-tetrazapentacyclo[17.5.2.1^2,5.1^9,13.0^22,26]octacosa-1(25),2,5(28),19,22(26),23-hexaen-7-yl]-3-methyl-butanamide], the 50% inhibitory concentration (IC50) against KRAS G12C-BRAF complex [1] was 45 nM; against KRAS G12C-BRAF complex [2], 5 nM; in experiment [3], 1030 nM; in experiment [4], 1880 nM; in experiment [5], above 10000 nM.

Turning to `CO[C@@H](C)c1ncc(N2CCN(C)CC2)cc1-c1c2c3c(F)c(ccc3n1CC(F)(F)F)-c1csc(n1)C[C@H](NC(=O)[C@H](C(C)C)N1CCCC3(CCN(C(=O)[C@H](F)Cl)CC3)C1=O)C(=O)N1CCC[C@H](N1)C(=O)OCC(C)(C)C2` (atropisomer, axis not shown; (M)) [Example 20, (2S)-2-[9-[(2R)-2-chloro-2-fluoro-acetyl]-1-oxo-2,9-diazaspiro[5.5]undecan-2-yl]-N-[(7S,13S)-25-fluoro-(20M)-20-[2-[(1S)-1-methoxyethyl]-5-(4-methylpiperazin-1-yl)-3-pyridyl]-17,17-dimethyl-8,14-dioxo-21-(2,2,2-trifluoroethyl)-15-oxa-4-thia-9,21,27,28-tetrazapentacyclo[17.5.2.1^2,5.1^9,13.0^22,26]octacosa-1(25),2,5(28),19,22(26),23-hexaen-7-yl]-3-methyl-butanamide], the IC50 against KRAS G12C-BRAF complex [1] was determined as 148 nM; at KRAS G12C-BRAF complex [2], 47 nM; in experiment [3], 1780 nM; in experiment [4], 745 nM; in experiment [5], 1240 nM.

Turning to `CCn1c(-c2cc(N3CCN(CC(F)(F)F)CC3)cnc2[C@H](C)OC)c2c3cc(c(F)cc31)-c1csc(n1)C[C@H](NC(=O)[C@H](C(C)C)N1CCC3(CN(C(=O)[C@H](F)Cl)C3)C1=O)C(=O)N1CCC[C@H](N1)C(=O)OCC(C)(C)C2` (atropisomer, axis not shown; (M)) [Example 37, (2S)-2-[2-[(2R)-2-chloro-2-fluoro-acetyl]-5-oxo-2,6-diazaspiro[3.4]octan-6-yl]-N-[(7S,13S)-21-ethyl-24-fluoro-(20M)-20-[2-[(1S)-1-methoxyethyl]-5-[4-(2,2,2-trifluoroethyl)piperazin-1-yl]-3-pyridyl]-17,17-dimethyl-8,14-dioxo-15-oxa-4-thia-9,21,27,28-tetrazapentacyclo[17.5.2.1^2,5.1^9,13.0^22,26]octacosa-1(25),2,5(28),19,22(26),23-hexaen-7-yl]-3-methyl-butanamide], the IC50 on KRAS G12C-BRAF complex [1] was 39 nM; in experiment [3] it was 1360 nM; in experiment [4], 159 nM; in experiment [5], 964 nM.

For the compound `CCn1c(-c2cc(N3CCN(CC(F)(F)F)CC3)cnc2[C@H](C)OC)c2c3cc(c(F)cc31)-c1csc(n1)C[C@H](NC(=O)[C@H](C(C)C)N(C)C(=O)C1(F)CCN(C(=O)[C@H](F)Cl)CC1)C(=O)N1CCC[C@H](N1)C(=O)OCC(C)(C)C2` (atropisomer, axis not shown; (M)) [Example 49, 1-[(2R)-2-chloro-2-fluoro-acetyl]-N-[(1S)-1-[[(7S,13S)-21-ethyl-24-fluoro-(20M)-20-[2-[(1S)-1-methoxyethyl]-5-[4-(2,2,2-trifluoroethyl)piperazin-1-yl]-3-pyridyl]-17,17-dimethyl-8,14-dioxo-15-oxa-4-thia-9,21,27,28-tetrazapentacyclo[17.5.2.1^2,5.1^9,13.0^22,26]octacosa-1(25),2,5(28),19,22(26),23-hexaen-7-yl]carbamoyl]-2-methyl-propyl]-4-fluoro-N-methyl-piperidine-4-carboxamide], the half-inhibitory concentration (IC50) was determined as 15 nM at KRAS G12C-BRAF complex [1]; 8 nM at KRAS G12C-BRAF complex [2]; 577 nM in experiment [3]; 73 nM in experiment [4]; 444 nM in experiment [5].

In the case of `CCn1c(-c2cc(N3CCOCC3)cnc2[C@H](C)OC)c2c3cc(c(F)cc31)-c1csc(n1)C[C@H](NC(=O)[C@H](C(C)C)N1CC[C@]3(CCN(C(=O)[C@H](F)Cl)C3)C1=O)C(=O)N1CCC[C@H](N1)C(=O)OCC(C)(C)C2` (atropisomer, axis not shown; (M)) [Example 51, (2S)-2-[(5S)-7-[(2R)-2-chloro-2-fluoro-acetyl]-1-oxo-2,7-diazaspiro[4.4]nonan-2-yl]-N-[(7S,13S)-21-ethyl-24-fluoro-(20M)-20-[2-[(1S)-1-methoxyethyl]-5-morpholino-3-pyridyl]-17,17-dimethyl-8,14-dioxo-15-oxa-4-thia-9,21,27,28-tetrazapentacyclo[17.5.2.1^2,5.1^9,13.0^22,26]octacosa-1(25),2,5(28),19,22(26),23-hexaen-7-yl]-3-methyl-butanamide], the IC50 was 74 nM at KRAS G12C-BRAF complex [1]; 34 nM on KRAS G12C-BRAF complex [2]; 6440 nM in experiment [3]; 2500 nM in experiment [4]; above 10000 nM in experiment [5].

A word on the IC50: it is the point on the concentration scale where inhibition reaches its midpoint.
